Assay results as given in PMC4368485 (Neuron, 2015).

Tests used:
[1] = estimated from the literature ref Yang et al., 2003, Nicholson et al., 2007; cited from earlier work
[2] = molecular target: rat GluN1-1a/GluN2B receptors (Rattus norvegicus, UniProt P35439+Q00960); conditions: Table S6 ref Mott et al., 1998; cited from earlier work
[3] = test system: horizontal locomotor activity; test: Locomotor activity; assay type: in vivo, rat; conditions: at high doses IP; rats; cumulative 2 hr
[4] = test system: latency to fall; test: Rotorod test; assay type: in vivo, mouse; conditions: mice, vehicle 140±13 sec

Chain of rat GluN1-1a/GluN2B receptors (Q00960 27-1482, other chains not shown): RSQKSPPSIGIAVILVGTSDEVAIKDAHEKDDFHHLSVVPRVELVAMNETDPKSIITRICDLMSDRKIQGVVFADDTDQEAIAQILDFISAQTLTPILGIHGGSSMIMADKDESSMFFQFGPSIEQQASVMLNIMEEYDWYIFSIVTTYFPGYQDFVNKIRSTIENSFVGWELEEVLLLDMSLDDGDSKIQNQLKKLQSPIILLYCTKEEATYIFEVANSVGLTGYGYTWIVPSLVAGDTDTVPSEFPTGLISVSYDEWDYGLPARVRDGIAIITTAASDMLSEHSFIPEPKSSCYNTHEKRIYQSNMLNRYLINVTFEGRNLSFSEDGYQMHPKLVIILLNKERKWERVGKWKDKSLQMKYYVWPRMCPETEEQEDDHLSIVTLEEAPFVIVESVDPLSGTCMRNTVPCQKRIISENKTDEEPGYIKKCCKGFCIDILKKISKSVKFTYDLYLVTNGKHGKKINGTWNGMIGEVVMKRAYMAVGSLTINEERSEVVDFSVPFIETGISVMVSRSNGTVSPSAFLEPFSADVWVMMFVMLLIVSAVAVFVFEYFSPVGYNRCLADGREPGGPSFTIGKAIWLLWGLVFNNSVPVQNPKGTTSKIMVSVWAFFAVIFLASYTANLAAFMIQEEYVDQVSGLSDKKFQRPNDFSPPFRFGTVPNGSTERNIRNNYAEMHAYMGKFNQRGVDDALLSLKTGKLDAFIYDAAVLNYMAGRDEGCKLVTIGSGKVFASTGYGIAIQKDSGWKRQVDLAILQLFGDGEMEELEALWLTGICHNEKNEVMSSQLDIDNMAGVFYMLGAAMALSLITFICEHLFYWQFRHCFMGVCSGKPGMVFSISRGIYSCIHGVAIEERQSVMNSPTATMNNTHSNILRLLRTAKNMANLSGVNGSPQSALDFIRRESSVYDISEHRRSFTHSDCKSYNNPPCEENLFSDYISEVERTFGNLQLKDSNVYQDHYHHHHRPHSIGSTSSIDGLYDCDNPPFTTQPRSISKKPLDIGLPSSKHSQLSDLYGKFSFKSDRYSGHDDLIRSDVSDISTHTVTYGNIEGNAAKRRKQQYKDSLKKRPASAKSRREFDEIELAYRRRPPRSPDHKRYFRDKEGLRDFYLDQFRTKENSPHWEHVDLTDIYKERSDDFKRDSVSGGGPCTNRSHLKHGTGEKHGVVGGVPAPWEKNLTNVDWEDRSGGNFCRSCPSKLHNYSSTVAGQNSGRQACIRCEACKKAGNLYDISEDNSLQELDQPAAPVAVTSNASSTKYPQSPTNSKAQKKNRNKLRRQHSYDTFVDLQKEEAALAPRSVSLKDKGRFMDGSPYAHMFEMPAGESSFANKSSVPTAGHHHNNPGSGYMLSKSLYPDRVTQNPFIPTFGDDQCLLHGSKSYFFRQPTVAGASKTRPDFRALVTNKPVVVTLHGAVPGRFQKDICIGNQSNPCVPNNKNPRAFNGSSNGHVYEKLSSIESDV

In the case of `C[C@@H]([C@@H](O)c1ccc(O)cc1)N1CCC(O)(c2ccccc2)CC1` [CP-101,606], the “therapeutic ratio (TR) for neuroprotection” value [1] is listed as ~ 4 and the “pH sensitivity of inhibition” value [2] is listed as “lack substantial pH sensitivity”.

With `CC(C(O)c1ccc(O)cc1)N1CCC(Cc2ccccc2)CC1` (centres unmarked) [ifenprodil] the “effect on locomotor activity” value [3] was “reduced” and the “rotorod latency to fall” value ([4]; 30 mg/kg IP) was 35 ± 6 s.

With (+)MK-801 the “rotorod latency to fall” value ([4]; 0.6 mg/kg IP) was 3 ± 2 s.
